# Assay results from patent publication US6699989B1, “Antiviral and antimicrobial guanidine or biguanidine derivatives” (priority 2000, dated 2004).
# Where two headings read alike, the source gives them in different places.
# Experiments:
# [1] = test system: HIV-1; test: PBMC assay, virus production by reverse transcriptase activity; assay type: cell-based; conditions: ROJO in PBMC
# Description: Method 2: PBMC Assay Method (Peripheral Blood Mononuclear cell)—Description
# This assay addresses the issue of providing a rationale for further evaluation of the compound by providing evidence of in vitro anti-HIV activity against a low passage clinical strain of HIV-1. These fresh human peripheral blood mononuclear cell assays use fresh human cells obtained from the American Red Cross from uninfected, normal human donors. Mononuclear cells from these blood samples are isolated by centrifugation and infected with low passage clinical strains of HIV-1 which have been obtained by culture of blood cells from HIV-infected patients with uninfected PBMCs. Since the PBMCs are not killed by HIV infection, endpoint quantification is performed by measurement of virus production in each well by reverse transcriptase assay or p24 ELISA. These assays provide evidence that the test compounds will have efficacy against viruses, which will likely be encountered in patients without genetic changes, introduced by passage in cell culture.
# Thus, PBMCs assay measures the amount of virus released from the infected cells into the tissue culture supernatant. The activity of the test compound is measured by its ability to reduce the level of virus production relative to the virus controls (cells+virus with no added compound). In PBMC culture we use reverse transcriptase activity in the supernatant to quantify the amount of virus production from the infected cells. Endpoint quantification is performed at 6 days post-infection.
# Fresh human peripheral blood lymphocytes (PBL) are isolated from voluntary Red Cross donors, seronegative for HIV and HBV. Leukophoresed blood is diluted 1:1 with Dulbecco's phosphate buffered saline (PBS), layered over 14 mL of Ficoll-Hypaque density gradient in a 50 mL centrifuge tube. Tubes are then centrifuged for 30 minutes at 600×g. Banded PBLs are gently aspirated from the resulting interface and subsequently washed 2× with PBS by low speed centrifugation. […] After incubation, PBLs are centrifuged and reset in RPMI 1640 with 15% FBS, 2 mM L-glutamine, 100 U/mL. penicillin, 100 ug/mL streptomycin, 10 ug/mL gentamycin, and 20 U/mL recombinant human IL-2. PBLs are maintained in this medium at a concentration of 1-2×10E6/mL with bi-weekly medium changes, until use in assay protocol. For the PBL assay, PHA-P stimulated cells from at least two normal donors are pooled, set in fresh medium at 2×10E6/mL and plated in the interior wells of a 96 well round bottom microplate at 50 μL/well. Test drug dilutions are prepared at a 2× concentration in microtiter tubes and 100 μL of each concentration is placed in appropriate wells in a standard format. 50 μL of a predetermined dilution of virus stock is placed in each test well. Wells with cells and virus alone are used for virus control. Separate plates are identically set without virus for drug cytotoxicity studies using an XTT assay system.
# In the standard PBL assay (MOI: 0.2), the assay was ended on day 7 following collection of cell free supernatant samples for reverse transcriptase activity assay. In the low MOI PBL assay (MOI: 0.02), supernatant samples were collected on day 6, day 11, and day 14 post-infection and analyzed for RT activity.
# [2] = test system: PBMCs; test: Toxicity to PBMC, XTT; assay type: cell-based, human
# [3] = test system: HIV-1; conditions: CEM-SS, HIV1 RF
# Procedure: This is a cytoprotection assay that uses the T-lymphoblastoid tumor cell line CEM-SS and laboratory adapted strains of HIV-1. Upon infection with HIV, the CEM-SS cells form syncytia and eventually die, producing large amounts of progeny virus over the course of 4-6 days at the standard multiplicity of infection (0.01). The antiviral assay measures the ability of a given compound to inhibit the HIV-induced cell killing. […] The activity of the compound is evaluated by measuring cell viability at 6 days post-infection and comparing the viability to that obtained in cell control (cells only), virus control (cells and virus only) and toxicity control (cells and compound only) wells.
# Efficacy of the compound in cell culture is measured by increased cell viability in CEM-SS assays or reduction in virus production in PBMC assays. The data obtained yields a dose response curve which can be evaluated to determine doses which yield 25%, 50% and 95% protection from HIV-induced cell killing or virus production. […] These concentrations are reported as the TC25, TC50 and TC95 values. The ratio of toxicity to efficacy constitutes the therapeutic index TC50/IC50.
# CEM-SS cells assay measures the ability of the compound to inhibit HIV induced cell killing. The cells are stained at 6 days post-infection with the tetrazolium dye XTT which is converted to a colored formazan product by the mitochondria of viable cells. Protection from cell killing afforded by the test compound is measured by comparison to both cell controls and virus controls. Cell killing in this system is directly related to the amount of virus produced by the infected cells and XTT-formazan production is proportional to the number of viable cells in each well. Toxicity of the compound to the target cells is measured in parallel.
# CEM-SS cells (or other established human cell line used in these experiments) were passaged in T-150 flasks for use in the assay. On the day preceding the assay, the cells were split 1:2 to assure they would be in an exponential growth phase at time of infection. On the day of assay the cells were washed twice with tissue culture medium and resuspended in fresh tissue culture medium. Total cell and viability counting was performed using hemacytometer and trypan blue dye exclusion. Cell viability was greater than 95% for the cells to be utilized in the assay. The cells were pelleted and resuspended at 2.5×10^4 cells per ml in tissue culture medium. Cells were added to the drug-containing plates in a volume of 50 μl.
# A pretitered aliquot of virus was removed from the freezer (−80° C.) and allowed to thaw slowly to room temperature in a biological safety cabinet. The virus was resuspended and diluted into tissue culture medium such that the amount of virus added to each well in a volume of 50 μl will be the amount determined to give complete cell killing at 6 days post-infection. In general the virus pools produced with the IIIB isolate of HIV required the addition of 5 μl of virus per well.
# Each plate contained cell control wells (cells only), virus control wells (cells plus virus), drug toxicity control wells (cells plus drug only), drug colorimetric control wells (drug only) as well as experimental wells (drug plus cells plus virus).
# After 6 days of incubation at 37° C. in a 5% CO2 incubator the test plates were analyzed by staining with the tetrazolium dye XTT. XTT-tetrazolium is metabolized by the mitochondrial enzymes of metabolically active cells to a soluble formazan product, allowing the rapid quantitative analysis of the inhibition of HIV-induced cell killing by anti-HIV test substances. On day 6 post-infection plates were removed from the incubator and observed.
# [4] = test system: CEM-SS cells; assay type: cell-based; conditions: CEM-SS
# [5] = test system: Staphylococcus aureus ATCC 6538; test: Microdilution broth MIC assay; assay type: cell-based; conditions: ATCC6538, Sa, Mueller Hinton broth, about 17 hr
# Procedure: (§1) Test organisms. The test organisms are listed in Table 5 along with their source. Prior to assay, overnight bacterial slant cultures were used to inoculate Mueller Hinton broth followed by incubation for 5-7 hr. Each culture was then standardized turbidimetrically to a viable count of about 10^6 colony forming units/ml and used to inoculate the mirotiter assay plates. The viable count after addition to the plates was about 5×10^5 CFU/ml.
# (§2) Experimental design. The MIC of the test compounds for the bacterial strains was determined with a microdilution broth assay in 96 well microtiter plates. The test compounds were dissolved in DMSO and then diluted 10-fold in assay medium (Mueller Hinton broth) to obtain final concentrations of 0.128, 1.28, 12.8, and 128 μg/ml. A viability control containing DMSO, diluted in the same manner as the test compounds, was used to confirm that the DMSO was not inhibitory by itself. Trimethoprim (TMP) was used as a positive drug control. The assay plates were incubated at 37° C. for about 17 hr and each assay well observed visually for growth. The MIC was determined at the lowest concentration of drug which inhibited growth. [drawing 32]
# [6] = test system: Streptococcus pneumoniae ATCC 6303; test: Microdilution broth MIC assay; assay type: cell-based; conditions: ATCC6303, Sp, Mueller Hinton broth, about 17 hr
# Procedure: as §1, §2
# [7] = test system: Escherichia coli ATCC 11229; test: Microdilution broth MIC assay; assay type: cell-based; conditions: ATCC11229, Ec, Mueller Hinton broth, about 17 hr
# Procedure: as §1, §2
# [8] = test system: Proteus mirabilis ATCC 9921; test: Microdilution broth MIC assay; assay type: cell-based; conditions: ATCC9921, Pm, Mueller Hinton broth, about 17 hr
# Procedure: as §1, §2
# [9] = test system: Pseudomonas aeruginosa ATCC 15442; test: Microdilution broth MIC assay; assay type: cell-based; conditions: ATCC15442, Pa, Mueller Hinton broth, about 17 hr
# Procedure: as §1, §2
# [10] = test system: Klebsiella pneumoniae ATCC 4352; test: Microdilution broth MIC assay; assay type: cell-based; conditions: ATCC4352, Kp, Mueller Hinton broth, about 17 hr
# Procedure: as §1, §2
# [11] = test system: Staphylococcus epidermidis ATCC 35984; test: Microdilution broth MIC assay; assay type: cell-based; conditions: ATCC35984, Se, Mueller Hinton broth, about 17 hr
# Procedure: as §1, §2
compound,measurement,setting,value
"Cc1cn([C@H]2C[C@H](N=[N+]=[N-])[C@@H](CO)O2)c(=O)[nH]c1=O [AZT, reference compound]",RT ACTIVITY % VC,[1]; 0.0013 μM,104.6%
same,RT ACTIVITY MEAN,[1]; 0.0013 μM,7531.7 cpm
same,RT ACTIVITY % VC,[1]; 0.013 μM,77.3%
same,RT ACTIVITY MEAN,[1]; 0.013 μM,5566.3 cpm
same,RT ACTIVITY % VC,[1]; 0.04 μM,81.7%
same,RT ACTIVITY MEAN,[1]; 0.04 μM,5880.0 cpm
same,RT ACTIVITY % VC,[1]; 0.13 μM,32.3%
same,RT ACTIVITY MEAN,[1]; 0.13 μM,2397.0 cpm
same,RT ACTIVITY % VC,[1]; 0.4 μM,3.8%
same,RT ACTIVITY MEAN,[1]; 0.4 μM,274.0 cpm
same,RT ACTIVITY % VC,[1]; 1.3 μM,8.8%
same,RT ACTIVITY MEAN,[1]; 1.3 μM,88.0 cpm
same,RT ACTIVITY % VC,[1]; 4 μM,0.7%
same,RT ACTIVITY MEAN,[1]; 4 μM,48.3 cpm
same,IC50,"[1]; RT activity, read-out: IC50",100 nM
same,CC50,[2],> 4000 nM
"Nc1ccn([C@H]2CC[C@@H](CO)O2)c(=O)n1 [DDC, di-deoxycytosine, reference compound]",% RED. IN VIRAL CPE,[3]; 0.00003 μM,1%
same,ANTIVIRAL TEST VALUES MEAN O.D.,[3]; 0.00003 μM,0.014 O.D.
same,% RED. IN VIRAL CPE,[3]; 0.0001 μM,5%
same,ANTIVIRAL TEST VALUES MEAN O.D.,[3]; 0.0001 μM,0.062 O.D.
same,% RED. IN VIRAL CPE,[3]; 0.00032 μM,6%
same,ANTIVIRAL TEST VALUES MEAN O.D.,[3]; 0.00032 μM,0.080 O.D.
same,% RED. IN VIRAL CPE,[3]; 0.001 μM,4%
same,ANTIVIRAL TEST VALUES MEAN O.D.,[3]; 0.001 μM,0.057 O.D.
same,% RED. IN VIRAL CPE,[3]; 0.0032 μM,8%
same,ANTIVIRAL TEST VALUES MEAN O.D.,[3]; 0.0032 μM,0.109 O.D.
same,% RED. IN VIRAL CPE,[3]; 0.01 μM,9%
same,ANTIVIRAL TEST VALUES MEAN O.D.,[3]; 0.01 μM,0.119 O.D.
same,% RED. IN VIRAL CPE,[3]; 0.032 μM,75%
same,ANTIVIRAL TEST VALUES MEAN O.D.,[3]; 0.032 μM,1.019 O.D.
same,% RED. IN VIRAL CPE,[3]; 0.1 μM,81%
same,ANTIVIRAL TEST VALUES MEAN O.D.,[3]; 0.1 μM,1.099 O.D.
same,% RED. IN VIRAL CPE,[3]; 0.32 μM,92%
same,ANTIVIRAL TEST VALUES MEAN O.D.,[3]; 0.32 μM,1.246 O.D.
same,% RED. IN VIRAL CPE,[3]; 1 μM,86%
same,ANTIVIRAL TEST VALUES MEAN O.D.,[3]; 1 μM,1.166 O.D.
same,% RED. IN VIRAL CPE,[3]; 3.2 μM,100%
same,ANTIVIRAL TEST VALUES MEAN O.D.,[3]; 3.2 μM,1.754 O.D.
same,% RED. IN VIRAL CPE,[3]; 10 μM,100%
same,ANTIVIRAL TEST VALUES MEAN O.D.,[3]; 10 μM,1.687 O.D.
same,IC 25%,[3],0.01 CM
same,IC 95%,[3],2.11 CM
same,% CELL VIABILITY,[4]; 0.00003 μM,100%
same,CYTOTOXICITY TEST VALUES MEAN O.D.,[4]; 0.00003 μM,1.496 O.D.
same,% CELL VIABILITY,[4]; 0.0001 μM,93%
same,CYTOTOXICITY TEST VALUES MEAN O.D.,[4]; 0.0001 μM,1.346 O.D.
same,% CELL VIABILITY,[4]; 0.00032 μM,99%
same,CYTOTOXICITY TEST VALUES MEAN O.D.,[4]; 0.00032 μM,1.428 O.D.
same,% CELL VIABILITY,[4]; 0.001 μM,100%
same,CYTOTOXICITY TEST VALUES MEAN O.D.,[4]; 0.001 μM,1.476 O.D.
same,% CELL VIABILITY,[4]; 0.0032 μM,100%
same,CYTOTOXICITY TEST VALUES MEAN O.D.,[4]; 0.0032 μM,1.450 O.D.
same,% CELL VIABILITY,[4]; 0.01 μM,100%
same,CYTOTOXICITY TEST VALUES MEAN O.D.,[4]; 0.01 μM,1.550 O.D.
same,% CELL VIABILITY,[4]; 0.032 μM,100%
same,CYTOTOXICITY TEST VALUES MEAN O.D.,[4]; 0.032 μM,1.658 O.D.
same,% CELL VIABILITY,[4]; 0.1 μM,96%
same,CYTOTOXICITY TEST VALUES MEAN O.D.,[4]; 0.1 μM,1.391 O.D.
same,% CELL VIABILITY,[4]; 0.32 μM,97%
same,CYTOTOXICITY TEST VALUES MEAN O.D.,[4]; 0.32 μM,1.400 O.D.
same,% CELL VIABILITY,[4]; 1 μM,100%
same,CYTOTOXICITY TEST VALUES MEAN O.D.,[4]; 1 μM,1.469 O.D.
same,% CELL VIABILITY,[4]; 3.2 μM,100%
same,CYTOTOXICITY TEST VALUES MEAN O.D.,[4]; 3.2 μM,1.826 O.D.
same,% CELL VIABILITY,[4]; 10 μM,100%
same,CYTOTOXICITY TEST VALUES MEAN O.D.,[4]; 10 μM,2.064 O.D.
same,TC 25%,[4]; XTT,>10.00 CM
same,TC 50%,[4]; XTT,>10.00 CM
same,TC 95%,[4]; XTT,>10.00 CM
"COc1cc(Cc2cnc(N)nc2N)cc(OC)c1OC [TMP, Trimethoprim, reference compound]",MIC,[5],0.064 to 0.64 µg/mL
same,MIC,[6],0.64 to 6.4 µg/mL
same,MIC,[7],0.064 to 0.64 µg/mL
same,MIC,[8],0.64 to 6.4 µg/mL
same,MIC,[9],> 64 µg/mL
same,MIC,[10],0.064 to 0.64 µg/mL
same,MIC,[11],> 64 µg/mL
